Source: ChEMBL document CHEMBL2086224, “The design, synthesis, and biological evaluation of potent receptor tyrosine kinase inhibitors” (Bioorg Med Chem Lett, 2012)

Tests used:
[1] = Clearance in rat; format: ADME, organism-based; conditions: in vivo
[2] = Oral bioavailability in rat; format: ADME, organism-based; conditions: in vivo
[3] = Half life in rat at 10 mg/kg, po; format: ADME, organism-based; parameters: dose 10 mg/kg, route oral; conditions: in vivo
[4] = Oral bioavailability in rat at 10 mg/kg; format: ADME, organism-based; conditions: in vivo
[5] = AUC (0 to infinity) in rat at 10 mg/kg, po; format: ADME, organism-based; parameters: time infinity, dose 10 mg/kg, route oral; conditions: plasma
[6] = Permeability across MDCK cells; format: ADME, cell-based, Canis lupus familiaris; conditions: dog, read-out: permeability
[7] = tested on: Plasma; test: Plasma concentration in human MDA-MB-231 cells xenografted mouse at 100 mg/kg; format: ADME, organism-based; parameters: dose 100 mg/kg; conditions: in vivo
[8] = Drug uptake in human MDA-MB-231 cells xenografted mouse tumor at 1 mg/kg; format: ADME, organism-based, Neoplasm; parameters: dose 1 mg/kg; conditions: in vivo, BLD = below limit of detection
[9] = Plasma concentration in VEGF stimulated-mouse at 3 mg/kg, po after 4 hrs; format: ADME, organism-based; parameters: dose 3 mg/kg, route oral
[10] = tested on: Plasma; test: Plasma concentration in human MDA-MB-231 cells xenografted mouse at 3 mg/kg; format: ADME, organism-based; parameters: dose 3 mg/kg; conditions: in vivo
[11] = Drug uptake in VEGF-stimulated mouse lung at 60 mg/kg, po after 4 hrs; format: ADME, organism-based; parameters: dose 60 mg/kg, route oral; conditions: read-out: Drug uptake
[12] = Plasma concentration in VEGF stimulated-mouse at 60 mg/kg, po after 4 hrs; format: ADME, organism-based; parameters: dose 60 mg/kg, route oral
[13] = Plasma concentration in athymic nu/nu mouse bearing human HT-29 tumor at 10 to 100 mg/kg, po administered QD for 14 days; format: ADME, organism-based; parameters: dose 10-100 mg/kg, route oral
[14] = tested on: Plasma; test: Plasma concentration in human MDA-MB-231 cells xenografted mouse at 30 mg/kg; format: ADME, organism-based; parameters: dose 30 mg/kg; conditions: in vivo
[15] = Drug uptake in VEGF-stimulated mouse lung at 3 mg/kg, po after 4 hrs; format: ADME, organism-based; parameters: dose 3 mg/kg, route oral; conditions: read-out: Drug uptake
[16] = Plasma concentration in VEGF stimulated-mouse at 10 mg/kg, po after 4 hrs; format: ADME, organism-based; parameters: dose 10 mg/kg, route oral
[17] = tested on: Lung; test: Drug uptake in VEGF-stimulated mouse lung at 1 mg/kg, po after 4 hrs; format: ADME, organism-based; parameters: dose 1 mg/kg, route oral; conditions: in vivo, BLD = below limit of detection
[18] = Drug uptake in VEGF-stimulated mouse lung at 10 mg/kg, po after 4 hrs; format: ADME, organism-based; parameters: dose 10 mg/kg, route oral; conditions: read-out: Drug uptake
[19] = tested on: Plasma; test: Plasma concentration in human MDA-MB-231 cells xenografted mouse at 10 mg/kg; format: ADME, organism-based; parameters: dose 10 mg/kg; conditions: in vivo
[20] = Plasma concentration in athymic nu/nu mouse bearing human MDA-MB-231 tumor at 10 to 100 mg/kg, po administered QD for 14 days; format: ADME, organism-based; parameters: dose 10-100 mg/kg, route oral
[21] = Drug uptake in human MDA-MB-231 cells xenografted mouse tumor at 10 mg/kg; format: ADME, organism-based, Neoplasm; parameters: dose 10 mg/kg; conditions: in vivo, read-out: Drug uptake
[22] = Drug uptake in human MDA-MB-231 cells xenografted mouse tumor at 100 mg/kg; format: ADME, organism-based, Neoplasm; parameters: dose 100 mg/kg; conditions: in vivo, read-out: Drug uptake
[23] = Plasma concentration in VEGF stimulated-mouse at 1 mg/kg, po after 4 hrs; format: ADME, organism-based; parameters: dose 1 mg/kg, route oral
[24] = Drug uptake in human MDA-MB-231 cells xenografted mouse tumor at 3 mg/kg; format: ADME, organism-based, Neoplasm; parameters: dose 3 mg/kg; conditions: in vivo, BLD = below limit of detection
[25] = Drug uptake in VEGF-stimulated mouse lung at 100 mg/kg, po after 4 hrs; format: ADME, organism-based; parameters: dose 100 mg/kg, route oral; conditions: read-out: Drug uptake
[26] = Plasma concentration in VEGF stimulated-mouse at 100 mg/kg, po after 4 hrs; format: ADME, organism-based; parameters: dose 100 mg/kg, route oral
[27] = Drug uptake in human MDA-MB-231 cells xenografted mouse tumor at 60 mg/kg; format: ADME, organism-based, Neoplasm; parameters: dose 60 mg/kg; conditions: in vivo, read-out: Drug uptake
[28] = tested on: Plasma; test: Plasma concentration in human MDA-MB-231 cells xenografted mouse at 1 mg/kg; format: ADME, organism-based; parameters: dose 1 mg/kg; conditions: in vivo, BLD = below limit of detection
[29] = Plasma concentration in VEGF stimulated-mouse at 30 mg/kg, po after 4 hrs; format: ADME, organism-based; parameters: dose 30 mg/kg, route oral
[30] = Drug uptake in human MDA-MB-231 cells xenografted mouse tumor at 30 mg/kg; format: ADME, organism-based, Neoplasm; parameters: dose 30 mg/kg; conditions: in vivo, read-out: Drug uptake
[31] = tested on: Plasma; test: Plasma concentration in human MDA-MB-231 cells xenografted mouse at 60 mg/kg; format: ADME, organism-based; parameters: dose 60 mg/kg; conditions: in vivo
[32] = Drug uptake in VEGF-stimulated mouse lung at 30 mg/kg, po after 4 hrs; format: ADME, organism-based; parameters: dose 30 mg/kg, route oral; conditions: read-out: Drug uptake

`CCN1CCC(Nc2ccc3c(c2)C(=C(c2ccccc2)c2nc4cc(OC)ccc4[nH]2)C(=O)N3)CC1` (mixture of isomers) showed a clearance [1] of 108 mL/min/kg and a bioavailability [2] of 19%.

For `CCN1CCC(Nc2ccc3c(c2)C(=C(c2ccccc2)c2nc4ccccc4[nH]2)C(=O)N3)CC1` (mixture of isomers), the half-life [3] was 342 min, the bioavailability [4] was 37% and the AUC(0-inf) [5] was 1.44 µM·h.

For `CCN1CCC(Nc2ccc3c(c2)C(=C(c2ccc(C)cc2)c2nc4ccccc4[nH]2)C(=O)N3)CC1` (mixture of isomers), the half-life [3] was 276 min, the bioavailability [4] was 55% and the AUC(0-inf) [5] was 2.36 µM·h.

For `CCN1CCC(Nc2ccc3c(c2)C(=C(c2ccc(OC)cc2)c2nc4ccccc4[nH]2)C(=O)N3)CC1` (mixture of isomers), the half-life [3] was 450 min, the bioavailability [4] was 27% and the AUC(0-inf) [5] was 0.33 µM·h.

In the case of `CCN1CCC(Nc2ccc3c(c2)C(=C(c2cccc(F)c2)c2nc4ccccc4[nH]2)C(=O)N3)CC1` (mixture of isomers), the half-life [3] was 264 min, the bioavailability [4] was 63% and the AUC(0-inf) [5] was 1.99 µM·h.

With `CCN1CCC(Nc2ccc3c(c2)C(=C(c2cc(F)cc(F)c2)c2nc4ccccc4[nH]2)C(=O)N3)CC1` (mixture of isomers) the half-life [3] was 228 min, the bioavailability [4] was 72% and the AUC(0-inf) [5] was 3.14 µM·h.

For `CCN1CCC(Nc2ccc3c(c2)C(=C(c2ccccc2)c2ncc[nH]2)C(=O)N3)CC1` (mixture of isomers), the half-life [3] was 696 min, the bioavailability [4] was 16% and the AUC(0-inf) [5] was 1.5 µM·h.

Compound `CCN1CCC(Nc2ccc3c(c2)C(=C(c2cccc(F)c2)c2ncc[nH]2)C(=O)N3)CC1` (mixture of isomers) has a half-life [3] of 324 min, a bioavailability [4] of 15% and an AUC(0-inf) [5] of 1.12 µM·h.

For `CCN1CCC(Nc2ccc3c(c2)C(=C(c2ccc(Cl)cc2)c2ncc[nH]2)C(=O)N3)CC1` (mixture of isomers), the Papp [6] was 6.8 ×10⁻⁶ cm/s, the concentration [7] was 800 nM and the Drug uptake [8] was “BLD”. The concentration at 4 h [9] was 10 nM, the concentration [10] was 10 nM and the concentration at 4 h [11] was 810 nM. For the same compound, the concentration at 4 h [12] was 10 nM, the concentration at 336 h [13] was 1000 nM and the concentration [14] was 200 nM. For the same compound, the concentration at 4 h [15] was 70 nM, the concentration at 4 h [16] was 20 nM and the Drug uptake [17] was “BLD”. The concentration at 4 h [18] was 280 nM, the concentration [19] was 40 nM and the concentration at 336 h [20] was 1000 nM. For the same compound, the concentration [21] was 340 nM, the half-life [3] was 642 min and the concentration [22] was 8.8 µM. For the same compound, the concentration at 4 h [23] was 4 nM, the Drug uptake [24] was “BLD” and the concentration at 4 h [25] was 3.55 µM. For the same compound, the concentration at 4 h [26] was 620 nM, the concentration [27] was 3.6 µM and the bioavailability [4] was 63%. For the same compound, the Cp [28] was “BLD”, the concentration at 4 h [29] was 10 nM and the concentration [30] was 1400 nM. The concentration [31] was 260 nM, the concentration at 4 h [32] was 470 nM and the AUC(0-inf) [5] was 5.04 µM·h.

With `CCN1CCC(Nc2ccc3c(c2)C(=C(c2cccc(F)c2)c2ncc(C)[nH]2)C(=O)N3)CC1` (mixture of isomers) the half-life [3] was 276 min, the bioavailability [4] was 20% and the AUC(0-inf) [5] was 1.9 µM·h.

With `CCN1CCC(Nc2ccc3c(c2)C(=C(c2cc(F)cc(F)c2)c2nc(C)c[nH]2)C(=O)N3)CC1` (mixture of isomers) the half-life [3] was 432 min, the bioavailability [4] was 59% and the AUC(0-inf) [5] was 5.19 µM·h.

With `CCN1CCC(Nc2ccc3c(c2)C(=C(c2nc(C)c[nH]2)c2ccccc2F)C(=O)N3)CC1` (mixture of isomers) the half-life [3] was 138 min, the bioavailability [4] was 25% and the AUC(0-inf) [5] was 1.03 µM·h.
